1 compound from patent US6906107B2, “Use of cyclohexenone derivatives for the manufacture of a medicament in the treatment of dysuria” (Meiji Dairies Corporation, priority 2001, dated 2005) can be followed below.

Assay [1] has as its system STZ-administered rat. Put plainly: Test 1: maximum quantity excreted by single urination, metabolic cage, 24 hours. The format is in vivo. The note with it: STZ 65 mg/kg i.p. rat; Compound 4 i.p. 8 mg/kg daily for 8 weeks; mean ± S.E.; p < 0.05 relative to STZ-administered group. On the procedure:
Test 1 (Maximum Quantity Excreted by Single Urination)
To a rat, 65 mg/kg of streptozotocin (STZ) was administered intraperitoneally. After intraperitoneal administration of Compound 4, which had been obtained in Preparation Example 4, at a daily dose of 8 mg/kg for 8 weeks from two days after administration of STZ, urination pattern such as urination frequency and urination amount was recorded for 24 hours at 2.5-min intervals by using a metabolic cage.

Assay [2] deals with STZ-administered rat. Put plainly: Test 2: bladder capacity and urination efficiency from intravesical pressure under anesthesia. The format is in vivo. Particulars: Compound 4 i.p. 8 mg/kg daily for 8 weeks, mean ± S.E., p < 0.05 relative to STZ-administered group. The method, then: Test 2 (Bladder Capacity and Urination Efficiency)
In a similar manner to Test 1, Compound 4 obtained in Preparation Example 4 was administered intraperitoneally to a rat at a daily dose of 8 mg/kg for 8 weeks two days after administration of STZ. The intravesical pressure was measured under anesthesia. From the results, the bladder capacity and urination efficiency were determined.
Urination efficiency (%)=100×excreted amount/bladder capacity

A further assay relates to bladder smooth muscle. Put plainly: Test 3: contractive force of extracted bladder smooth muscle after ischemia-reperfusion of abdominal aorta. The format is in vivo, rat. The note with it: for Contractive force (contraction by carbachol) / Contractive force (contraction by concentrated potassium chloride): 30 minutes ischemia, 30 minutes reperfusion; for Contractive force (contraction by concentrated potassium chloride): potassium chloride 100 mM. On the procedure:
Test 3 ([…]) Compound 4 obtained in Preparation Example 4 was administered intraperitoneally to a rat immediately before the ischemia at a dose of 0.5, 2.0 and 8.0 mg/kg, and the rat was anesthetized by use of pentobarbital. Following 30 minutes ischemia of abdominal aorta of the rats, the abdominal aorta was subjected to perfusion for 30 minutes. Each bladder was then extracted and fixed in organbath filled with Krebs-Henseleit nutritive solution. By the use of TB-612T transducer (product of Nihonkoden), contractive force of bladder smooth muscle due to carbachol or concentrated potassium chloride (100 mM) was measured.

Setting [3] is: 0.5 mg/kg i.p. immediately before ischemia.
The mark [4] stands for this setting: 2.0 mg/kg i.p. immediately before ischemia.
Setting [5] is: 8.0 mg/kg i.p. immediately before ischemia.

Molecules are shown by their SMILES.

`CC1=C(CCCCCCCCCCCCCCCO)C(C)(C)CCC1=O` [Compound 4, 3-(15-Hydroxypentadecyl)-2,4,4-trimethyl-2-cyclohexen-1-one]: the “Maximum amount excreted by single urination” value in the assay on STZ-administered rat [1] was 3.71 ± 0.26 mL. This compound also had a Urination efficiency in the assay on STZ-administered rat [2] (100×excreted amount/bladder capacity) of 75.0±6.1%. Besides, the Bladder capacity in the assay on STZ-administered rat [2] (urination-inducing bladder capacity) amounted to 0.54 ± 0.07 mL. In addition, the “Contractive force (contraction by carbachol)” value in the assay on bladder smooth muscle (setting [3]) stood at 4.5 ± 0.5 g/mm^2; in the assay on bladder smooth muscle (setting [4]), 5.4 ± 0.4 g/mm^2; with bladder smooth muscle (setting [5]), 6.5 ± 0.5 g/mm^2. Besides, the “Contractive force (contraction by concentrated potassium chloride)” value stood at 3.0 ± 0.4 g/mm^2 in the assay on bladder smooth muscle (setting [3]), 3.9 ± 0.3 g/mm^2 in the assay with bladder smooth muscle (setting [4]) and 3.9 ± 0.4 g/mm^2 in the assay with bladder smooth muscle (setting [5]). Besides, the “Effect on contraction of bladder smooth muscle (in words)” value in the assay on bladder smooth muscle (0.5, 2.0 and 8.0 mg/kg i.p., summary of Tables 3 and 4) was “enhances contraction of bladder smooth muscle depending on its dose”.
